From PubChem BioAssay (NCI)
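Method: 48-hour compound exposure of cells in 96-well plates, five concentrations, linear interpolation of endpoints. The concentration for 50% growth inhibition is given as GI50. TGI: total growth inhibition.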

Columns and labels:
Test in all cases: inhibition of tumour cell growth, NCI panel, 48 h
786-0 renal = test system: 786-0 renal
DU-145 prostate = test system: DU-145 prostate
OVCAR-4 ovarian = test system: OVCAR-4 ovarian
SK-OV-3 ovarian = test system: SK-OV-3 ovarian
SK-MEL-28 melanoma = test system: SK-MEL-28 melanoma
COLO 205 colon = test system: COLO 205 colon
OVCAR-5 ovarian = test system: OVCAR-5 ovarian
NCI/ADR-RES ovarian = test system: NCI/ADR-RES ovarian
IGROV1 ovarian = test system: IGROV1 ovarian
MALME-3M melanoma = test system: MALME-3M melanoma

Row | Structure (SMILES) | GI50 (786-0 renal) | TGI (786-0 renal) | GI50 (DU-145 prostate) | TGI (DU-145 prostate) | GI50 (OVCAR-4 ovarian) | TGI (OVCAR-4 ovarian) | GI50 (SK-OV-3 ovarian) | TGI (SK-OV-3 ovarian) | GI50 (SK-MEL-28 melanoma) | TGI (SK-MEL-28 melanoma) | GI50 (COLO 205 colon) | TGI (COLO 205 colon) | GI50 (OVCAR-5 ovarian) | TGI (OVCAR-5 ovarian) | GI50 (NCI/ADR-RES ovarian) | TGI (NCI/ADR-RES ovarian) | TGI (IGROV1 ovarian) | TGI (MALME-3M melanoma) | GI50 (IGROV1 ovarian) | GI50 (MALME-3M melanoma)
1 | Cc1[nH]c2ccccc2c1CO | 24.5 µM | 64.8 µM | 0.0457 µM | 18.1 µM | 21.4 µM | 82.6 µM | 35.1 µM | > 100 µM | 16.6 µM | 34.3 µM | 14.2 µM | 27.3 µM | 24.4 µM | 96.9 µM | 19.5 µM | 60.3 µM | – | – | – | –
2 | Cn1cnc([N+](=O)[O-])c1Sc1n[nH]c(-c2ccc(Cl)cc2)n1 | – | 51.5 µM | – | – | – | 57.4 µM | – | 95.7 µM | – | 30.3 µM | – | 30.9 µM | – | 63.6 µM | – | – | 62.3 µM | 26.4 µM | – | –
3 | Cn1cnc([N+](=O)[O-])c1S(=O)(=O)Oc1ccc(Cl)cc1 | 17 µM | 33 µM | 4.75 µM | 17.8 µM | – | – | 50.5 µM | > 100 µM | 19.2 µM | 51.8 µM | 0.546 µM | 2.09 µM | 15.6 µM | 39.1 µM | 11.7 µM | 64.3 µM | 5.58 µM | 4.15 µM | 2.14 µM | 1.99 µM
4 | N#Cc1c(N)nc2c(c1-c1ccc(Cl)cc1)COc1ccc(F)cc1-2 | 28.7 µM | 72.8 µM | 29.9 µM | > 100 µM | 34.7 µM | > 100 µM | > 100 µM | > 100 µM | – | – | – | – | 27.5 µM | > 100 µM | 22.9 µM | 54.6 µM | > 100 µM | 81.7 µM | 14.8 µM | 40.3 µM
5 | COC(=O)c1c2c(c(C)[n+]([O-])c1C)C(=O)C(NCc1ccccc1)=CC2=O | 3.68 µM | 23.7 µM | 3.5 µM | 11.2 µM | 1.13 µM | 2.4 µM | 2.81 µM | 9.63 µM | 4.63 µM | 22.2 µM | 0.977 µM | 2.67 µM | 2.58 µM | 6.22 µM | – | – | 4.42 µM | 1.88 µM | 1.71 µM | 0.617 µM
6 | O/N=C1/CCCC/C1=C\c1ccc(Cl)c(Cl)c1 | – | > 100 µM | – | – | – | 59.3 µM | – | 86.9 µM | – | > 100 µM | – | 38.9 µM | – | – | – | – | > 100 µM | – | – | –
7 | NC1=NN(c2ccccc2)C(=O)C1C(=O)C(=O)Nc1ccccc1 (centres undefined) | – | > 100 µM | – | – | – | > 100 µM | – | > 100 µM | – | – | – | > 100 µM | – | > 100 µM | – | – | > 100 µM | > 100 µM | – | –
8 | Clc1ccc(-c2cnc3c(-c4ccnc(N5CCNCC5)c4)cnn3c2)cc1 | 1.83 µM | 3.22 µM | 1.64 µM | 3.02 µM | 1.61 µM | 3.09 µM | 2.72 µM | 5.63 µM | 1.79 µM | 3.2 µM | 2.14 µM | 3.77 µM | 1.82 µM | 3.29 µM | – | – | 11.6 µM | 3.31 µM | 3.34 µM | 1.86 µM
9 | COc1ccc(/C=C/c2onc3c(=O)n(C)nc(-c4ccccc4)c23)cc1 | – | > 100 µM | – | – | – | – | – | > 100 µM | – | > 100 µM | – | > 100 µM | – | – | – | – | > 100 µM | – | – | –
10 | CCOC(=O)C1CC(=O)C=C2CCCCC21 (centres undefined) | – | > 100 µM | – | – | – | > 100 µM | – | > 100 µM | – | > 100 µM | – | > 100 µM | – | > 100 µM | – | – | > 100 µM | > 100 µM | – | –
11 | CCCCCCOC(=O)CC1=C(C)/C(=C/c2[nH]c(-c3ccc[nH]3)cc2OC)N=C1C | 0.0829 µM | 1.16 µM | 0.0728 µM | 1.86 µM | 0.0785 µM | 1.71 µM | 0.279 µM | 1.24 µM | – | – | 0.087 µM | 1.09 µM | 0.371 µM | 2 µM | 0.135 µM | 1.33 µM | 1.23 µM | 1.44 µM | 0.178 µM | 0.345 µM
12 | Cc1cccc2c(=O)c3c(sc12)c(NCCCNCCO)nc1ccccc13 | 1.75 µM | 3.4 µM | 1.57 µM | 2.96 µM | 1.8 µM | 3.44 µM | – | – | 1.73 µM | 3.18 µM | 1.61 µM | 3.24 µM | 1.6 µM | 3.02 µM | 1.73 µM | 3.26 µM | 2.96 µM | 3.5 µM | 1.34 µM | 1.81 µM
13 | C[C@@H]1CC[C@@]2(C)OC(c3ccccc3)[C@H](CO)N2C1=O (some centres undefined) | – | > 100 µM | – | – | – | > 100 µM | – | – | – | > 100 µM | – | > 100 µM | – | > 100 µM | – | – | > 100 µM | > 100 µM | – | –
14 | OCC1OC(N2C=C(c3nc4ccccc4s3)C3C=CC=CC32)C(O)C(O)C1O (centres undefined) | 17.6 µM | > 50 µM | 20.6 µM | > 50 µM | – | – | 41.1 µM | > 50 µM | 19.2 µM | > 50 µM | 9.38 µM | 20.9 µM | 16.5 µM | > 50 µM | > 50 µM | > 50 µM | > 50 µM | – | 19.8 µM | –
15 | Cc1cc(-c2nc3sc(C)cn3c2/C=N/N=C(N)N)c(C)s1 | 8.68 µM | 21.1 µM | 6.11 µM | 23 µM | 10.7 µM | 27.4 µM | 20.9 µM | 39.1 µM | 2.02 µM | 4.12 µM | 4.76 µM | 19 µM | 13.2 µM | 28.1 µM | 14.6 µM | 29.2 µM | > 100 µM | – | 28.8 µM | –
16 | O=Cc1ccc(-c2ccc(-c3nc4ccccc4s3)cc2)o1 | > 100 µM | > 100 µM | 35 µM | > 100 µM | > 100 µM | > 100 µM | > 100 µM | > 100 µM | > 100 µM | > 100 µM | > 100 µM | > 100 µM | > 100 µM | > 100 µM | 97.7 µM | > 100 µM | > 100 µM | – | > 100 µM | –
17 | O=CN/C=C/c1ccccc1 | – | > 100 µM | – | > 100 µM | – | > 100 µM | – | > 100 µM | – | > 100 µM | – | > 100 µM | – | > 100 µM | – | – | > 100 µM | > 100 µM | – | –
